We go through 1 compound from patent US6355633B1, “Aryl sulfonic acids and derivatives as FSH antagonists” (American Home Products Corporation, priority 1999, dated 2002).

The assay concerns the target T1, FSH receptor (Rattus norvegicus, UniProt P20395).
T1 construct: endogenous in cells; host or cells: primary ovarian granulosa cells of DES-treated immature Sprague-Dawley rats
T1 sequence (P20395 18-692): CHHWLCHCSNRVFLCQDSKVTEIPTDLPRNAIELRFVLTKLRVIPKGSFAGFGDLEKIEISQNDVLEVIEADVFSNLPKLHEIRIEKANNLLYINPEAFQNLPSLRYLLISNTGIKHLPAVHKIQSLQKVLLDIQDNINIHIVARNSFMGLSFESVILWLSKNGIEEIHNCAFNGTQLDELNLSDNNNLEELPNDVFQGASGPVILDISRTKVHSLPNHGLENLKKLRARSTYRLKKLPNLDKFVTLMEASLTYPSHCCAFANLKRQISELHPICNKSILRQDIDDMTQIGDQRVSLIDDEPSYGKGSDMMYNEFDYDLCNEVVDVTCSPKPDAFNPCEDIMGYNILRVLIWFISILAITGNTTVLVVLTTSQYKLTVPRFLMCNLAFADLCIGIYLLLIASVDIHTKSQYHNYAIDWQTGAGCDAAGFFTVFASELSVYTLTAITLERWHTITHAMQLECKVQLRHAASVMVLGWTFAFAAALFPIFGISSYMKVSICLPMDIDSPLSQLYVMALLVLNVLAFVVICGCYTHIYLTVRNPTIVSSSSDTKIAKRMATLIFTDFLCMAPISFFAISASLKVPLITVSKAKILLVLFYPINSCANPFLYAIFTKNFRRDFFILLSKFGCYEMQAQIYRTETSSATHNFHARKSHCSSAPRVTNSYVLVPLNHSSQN
The experiment in a line: In Vitro Bio-test Procedure of Agonists and Antagonists to the FSH Receptor Using Primary Cultures of Rat Granulosa (estradiol secretion). It counts as cell-based. On the procedure:
In Vitro Bio-test Procedure of Agonists and Antagonists to the FSH Receptor Using Primary Cultures of Rat Granulosa
Materials and Methods: Reagents
The concentration of vehicle was maintained constant throughout all dilutions.
Preparation of Granulosa Cells: Twenty-four day-old immature female Sprague-Dawley rats (Charles River Laboratories, Wilmington, Mass.) were used as donors for ovarian granulosa cells. The animals were treated by single daily injections of 100 mg/kg diethylstilbestrol (DES) in oil over three days. On the fourth day, animals were sacrificed by CO2 asphyxiation and the ovaries were removed. Ovaries were washed three times in 50 mL of sterile HEPES-buffered saline (HBS, pH 7.4). Granulosa cells were harvested by incubating ovaries in a hypertonic medium consisting of serum-free McCoy*s SA medium (Gibco Life Sciences, Grand Island, N.Y.) supplemented with […], […], 5 ng/mL sodium selenite (ITS, Sigma Chemical Co., St. Louis Mo.), […] L-glutamine, 100 nM testosterone, 100 nM DES and 100 U/mL penicillin/[…]/250 ng/mL amphotericin B (antibiotic/antimycotic, Gibco) containing 0.5 M sucrose and 0.1 mM EGTA. Ovaries were then incubated for 45 min. at 37 C. in a humidified incubator gassed with 95% air/5% CO2. They were washed 3 times with 10 mL isotonic medium (hypertonic medium without sucrose and EGTA) and incubated another 45 min. in isotonic medium at 37 C. Granulosa cells were harvested by squeezing the ovaries between two sterile glass microscope slides. Isolated granulosa cells were then placed in an 50 mL centrifuge tube and washed two times by the addition of 50 mL serum-free McCoy*s 5A medium followed by centrifugation at 700×g for 5 min. After the final spin, the cells were resuspended by gentle trituration in 25 mL serum-free medium, an aliquot counted in a hemocytometer and viability estimated by trypan blue exclusion. Cells were plated into 24-well Nunc tissue culture plates at 200,000 viable cells/well in […].
Procedure: Following plating of the cells, the plates are incubated at 37 C for 2-4 hours at which time the treatments are added to the cells. Treatments are added to the wells at 2× the desired final concentration in […] in isotonic medium containing 0.2% BSA. The cells are incubated at 37 C. for 72 h. At the end of the incubation period, the medium is removed from the wells and tested for estradiol concentration by radioimmunoassay.
Experimental Groups: In the 24-well format, the plate was divided into 6 columns of 4 wells/column. One plate per compound was used to test either agonist or antagonist modes. […]
Four different doses of compound were tested in the antagonist mode. In addition, one column was used for a negative control (vehicle alone) and the other remaining column for a positive control (ED50 of FSH alone).
The doses of compound chosen to test were extrapolated from the initial functional screening process. Along with the plates testing compounds, another plate was run in parallel using a dose-response of FSH (0.01-100 ng/mL) as a positive control.
Analysis of Results: Estradiol was expressed as pg/mL. Estradiol secretion in agonist mode, or the ability of the compound to inhibit FSH-induced estradiol secretion in antagonist, was compared to the appropriate negative and positive controls. Data were analyzed statistically by analysis of variance with Huber weighting of log transformed data. Paired differences were determined using the LSD test
Reference Compounds: Test compounds were compared to the effect of purified or recombinant human FSH.

The structures appear in SMILES notation.

Regarding `COc1ccc(C(=O)Nc2ccc(CCc3ccc(NC(=O)c4ccc(S(C)(=O)=O)cc4)cc3S(=O)(=O)O)c(S(=O)(=O)O)c2)cc1S(=O)(=O)N1CCOCC1` [Example 43a, 5-[[4-Methoxy-3-(4-morpholinylsulfonyl)benzoyl]amino]-2-[2-[4-[[4-(methylsulfonyl)benzoyl]amino]-2-sulfophenyl]ethyl]benzenesulfonic Acid], the IC50 (as a rule, the concentration that inhibits the measured activity by half) was determined as 17 µM.
